Measurements reported in the NIST ThermoML archive (doi:10.1021/je050020m).

Experiment: xn = mol fraction of the nth substance listed
Conditions: Liquid, Vibrating tube method

CCCCCCCCCC [decane] + O=C=O
Conditions | mass density [kg/m3]
332.94 K, 23010 kPa, x2 = 0.9663 | 775.39
332.94 K, 23014 kPa, x2 = 0.0551 | 721.3
332.94 K, 24016 kPa, x2 = 0.9663 | 784.64
332.94 K, 24025 kPa, x2 = 0.2369 | 730.17
332.94 K, 24026 kPa, x2 = 0.4536 | 743.58
332.94 K, 24057 kPa, x2 = 0.0551 | 722.11
332.94 K, 25006 kPa, x2 = 0.9663 | 793.1
332.94 K, 25022 kPa, x2 = 0.4536 | 744.71
332.94 K, 25028 kPa, x2 = 0.2369 | 731.08
332.94 K, 25048 kPa, x2 = 0.0551 | 722.92
342.79 K, 13528 kPa, x2 = 0.9663 | 503.61
342.79 K, 14029 kPa, x2 = 0.9663 | 528.33
342.79 K, 15026 kPa, x2 = 0.9663 | 569.49
342.79 K, 16019 kPa, x2 = 0.9663 | 603.24
342.79 K, 17025 kPa, x2 = 0.9663 | 631.6
342.79 K, 18035 kPa, x2 = 0.9663 | 657.54
342.79 K, 19000 kPa, x2 = 0.9663 | 674.01
342.79 K, 20022 kPa, x2 = 0.9663 | 691.29
342.79 K, 21024 kPa, x2 = 0.9663 | 706.16
342.79 K, 22022 kPa, x2 = 0.9663 | 719.34
342.79 K, 23022 kPa, x2 = 0.9663 | 731.24
342.79 K, 24017 kPa, x2 = 0.9663 | 741.98
342.79 K, 25006 kPa, x2 = 0.9663 | 751.96
342.84 K, 13020 kPa, x2 = 0.8114 | 721.51
342.84 K, 14001 kPa, x2 = 0.8114 | 726.31
342.84 K, 15022 kPa, x2 = 0.8114 | 730.92
342.84 K, 16041 kPa, x2 = 0.8114 | 735.26
342.84 K, 17013 kPa, x2 = 0.8114 | 739.14
342.84 K, 18018 kPa, x2 = 0.8114 | 742.96
342.84 K, 19020 kPa, x2 = 0.8114 | 746.57
342.84 K, 20008 kPa, x2 = 0.8114 | 749.98
342.84 K, 21023 kPa, x2 = 0.8114 | 753.35
342.84 K, 22003 kPa, x2 = 0.8114 | 756.46
342.84 K, 23041 kPa, x2 = 0.8114 | 759.67
342.84 K, 24026 kPa, x2 = 0.8114 | 762.58
342.84 K, 25034 kPa, x2 = 0.8114 | 765.48
342.86 K, 2043 kPa, x2 = 0.0551 | 694.82
342.86 K, 3006 kPa, x2 = 0.0551 | 695.92
342.86 K, 4043 kPa, x2 = 0.0551 | 696.93
342.86 K, 5044 kPa, x2 = 0.0551 | 697.98
342.86 K, 6046 kPa, x2 = 0.0551 | 699.02
342.86 K, 6984 kPa, x2 = 0.0551 | 699.98
342.86 K, 8003 kPa, x2 = 0.0551 | 701
342.86 K, 8999 kPa, x2 = 0.0551 | 702.09
342.86 K, 10007 kPa, x2 = 0.0551 | 702.98
342.86 K, 11044 kPa, x2 = 0.0551 | 703.97
342.86 K, 11996 kPa, x2 = 0.0551 | 704.89
342.86 K, 13021 kPa, x2 = 0.0551 | 705.84
342.86 K, 13997 kPa, x2 = 0.0551 | 706.74
342.86 K, 15043 kPa, x2 = 0.0551 | 707.69
342.86 K, 16022 kPa, x2 = 0.0551 | 708.54
342.86 K, 17001 kPa, x2 = 0.0551 | 709.54
342.86 K, 17984 kPa, x2 = 0.0551 | 710.28
342.86 K, 19042 kPa, x2 = 0.0551 | 711.19
342.86 K, 20017 kPa, x2 = 0.0551 | 712.03
342.86 K, 21054 kPa, x2 = 0.0551 | 713.1
342.86 K, 22022 kPa, x2 = 0.0551 | 713.72
342.86 K, 23029 kPa, x2 = 0.0551 | 714.55
342.86 K, 24018 kPa, x2 = 0.0551 | 715.37
342.86 K, 25025 kPa, x2 = 0.0551 | 716.21
342.87 K, 5031 kPa, x2 = 0.2369 | 702.48
342.87 K, 6026 kPa, x2 = 0.2369 | 703.7
342.87 K, 7027 kPa, x2 = 0.4536 | 711.28
342.87 K, 7029 kPa, x2 = 0.2369 | 704.93
342.87 K, 8006 kPa, x2 = 0.2369 | 706.09
342.87 K, 8024 kPa, x2 = 0.4536 | 712.92
342.87 K, 9027 kPa, x2 = 0.4536 | 714.5
342.87 K, 9030 kPa, x2 = 0.2369 | 707.28
342.87 K, 10014 kPa, x2 = 0.4536 | 716.02
342.87 K, 10017 kPa, x2 = 0.2369 | 708.4
342.87 K, 11019 kPa, x2 = 0.2369 | 709.54
342.87 K, 11025 kPa, x2 = 0.4536 | 717.56
342.87 K, 12003 kPa, x2 = 0.2369 | 710.62
342.87 K, 12015 kPa, x2 = 0.4536 | 719.02
342.87 K, 13006 kPa, x2 = 0.4536 | 720.46
342.87 K, 13017 kPa, x2 = 0.2369 | 711.73
342.87 K, 14013 kPa, x2 = 0.2369 | 712.79
342.87 K, 14013 kPa, x2 = 0.4536 | 721.87
342.87 K, 15001 kPa, x2 = 0.4536 | 723.23
342.87 K, 15021 kPa, x2 = 0.2369 | 713.84
342.87 K, 16004 kPa, x2 = 0.2369 | 714.86
342.87 K, 16029 kPa, x2 = 0.4536 | 724.63
342.87 K, 17018 kPa, x2 = 0.2369 | 715.9
342.87 K, 17019 kPa, x2 = 0.4536 | 725.94
342.87 K, 18016 kPa, x2 = 0.2369 | 716.89
342.87 K, 18026 kPa, x2 = 0.4536 | 727.26
342.87 K, 19005 kPa, x2 = 0.2369 | 717.86
342.87 K, 19018 kPa, x2 = 0.4536 | 728.54
342.87 K, 20000 kPa, x2 = 0.2369 | 718.83
342.87 K, 20000 kPa, x2 = 0.4536 | 729.75
342.87 K, 21007 kPa, x2 = 0.4536 | 731.02
342.87 K, 21023 kPa, x2 = 0.2369 | 719.83
342.87 K, 22008 kPa, x2 = 0.2369 | 720.78
342.87 K, 22021 kPa, x2 = 0.4536 | 732.28
342.87 K, 23029 kPa, x2 = 0.2369 | 721.76
342.87 K, 23032 kPa, x2 = 0.4536 | 733.5
342.87 K, 23992 kPa, x2 = 0.2369 | 722.74
342.87 K, 24017 kPa, x2 = 0.4536 | 734.7
342.87 K, 25008 kPa, x2 = 0.2369 | 723.65
342.87 K, 25029 kPa, x2 = 0.4536 | 735.91
352.75 K, 14010 kPa, x2 = 0.9663 | 449.95
352.75 K, 15010 kPa, x2 = 0.9663 | 494.4
352.75 K, 16020 kPa, x2 = 0.9663 | 532.74
352.75 K, 17024 kPa, x2 = 0.9663 | 566.61
352.75 K, 18026 kPa, x2 = 0.9663 | 594.54
352.75 K, 19015 kPa, x2 = 0.9663 | 618.22
352.75 K, 20016 kPa, x2 = 0.9663 | 638.64
352.75 K, 21018 kPa, x2 = 0.9663 | 656.61
352.75 K, 22006 kPa, x2 = 0.9663 | 672.26
352.75 K, 23021 kPa, x2 = 0.9663 | 686.58
352.75 K, 24018 kPa, x2 = 0.9663 | 699.34
352.75 K, 25017 kPa, x2 = 0.9663 | 710.94
352.76 K, 14034 kPa, x2 = 0.8114 | 701.72
352.76 K, 15050 kPa, x2 = 0.8114 | 707.51
352.76 K, 15994 kPa, x2 = 0.8114 | 712.45
352.76 K, 17009 kPa, x2 = 0.8114 | 717.35
352.76 K, 18024 kPa, x2 = 0.8114 | 722.02
352.76 K, 19033 kPa, x2 = 0.8114 | 726.33
352.76 K, 20039 kPa, x2 = 0.8114 | 730.42
352.76 K, 21009 kPa, x2 = 0.8114 | 734.16
352.76 K, 22013 kPa, x2 = 0.8114 | 737.84
352.76 K, 23004 kPa, x2 = 0.8114 | 741.32
352.76 K, 24035 kPa, x2 = 0.8114 | 744.84
352.76 K, 25042 kPa, x2 = 0.8114 | 748.08
352.78 K, 2008 kPa, x2 = 0.0551 | 686.89
352.78 K, 3010 kPa, x2 = 0.0551 | 688.04
352.78 K, 4018 kPa, x2 = 0.0551 | 689.18
352.78 K, 5014 kPa, x2 = 0.0551 | 690.28
352.78 K, 6015 kPa, x2 = 0.0551 | 691.42
352.78 K, 7011 kPa, x2 = 0.0551 | 692.46
352.78 K, 8024 kPa, x2 = 0.0551 | 693.62
352.78 K, 8988 kPa, x2 = 0.0551 | 694.56
352.78 K, 10035 kPa, x2 = 0.0551 | 695.65
352.78 K, 11021 kPa, x2 = 0.0551 | 696.68
